Experimental findings from patent US20170001970A1, “Substituted benzohydrazide analogs as histone demethylase inhibitors” (University of Utah Research Foundation, priority 2015, published 2017) are described below.

One assay has as its target T1, LSD1 (Homo sapiens, UniProt O60341).
T1 construct: purchased Cayman Chemical Company 700120
Kind of assay: LSD1 histone demethylase assay (LSD1 Inhibitor Screening Assay Kit, Cayman). In kind it is biochemical.
Details: not given
The method, then:
Recombinant (expressed in baculovirus infected BTI insect cells) monoamine oxidase A and monoamine oxidase B (Catalog No. M7316 and M7441, respectively) were purchased from Sigma-Aldrich Co. LLC. (St. Louis, Mo.). MAO-Glo™ Assay Kit was purchased from Promega Corporation (Madison, Wis.). ATPlite™ Luminescence Assay System (e.g. Catalog No. V1401) was purchased from PerkinElmer Inc. (Waltham, Mass.).
Briefly, test compounds were diluted to 20× the desired test concentration in 100% DMSO and 2.5 μL of the diluted test sample was added to a black 384-well plate. The LSD1 enzyme stock was diluted 17-fold with assay buffer, and 40 μL of the diluted LSD1 enzyme was added to the appropriate wells. Substrate, consisting of horseradish peroxidase, dimethyl K4 peptide corresponding to the first 21 amino acids of the N-terminal tail of histone H3, and 10-acetyl-3,7-dihydroxyphenoxazine was then added to wells. Resorufin was analyzed on an Envision plate reader with an excitation wavelength of 530 nm and an emission wavelength of 595 nm.
IC50 values are determined using GraphPad Prism 5 software. The data were entered as an X-Y plot into the software as percent inhibition for each concentration of the drug. The concentration values of the drug were log transformed and the nonlinear regression was carried out using the “sigmoidal dose-response (variable slope)” option within the GraphPad software to model the data and calculate IC50 values.
As a reminder, the IC50 is the concentration that gives 50% inhibition. High values mean lower potency, low ones higher potency. Compound `CCN1CCN(S(=O)(=O)c2cccc(C(=O)NN=C3CCc4c(Cl)cc(C)c(O)c43)c2)CC1` (stereo in doubt) [SP-10047_Z, (E)-N′-(4-chloro-7-hydroxy-6-methyl-2,3-dihydro-1H-Inden-1-ylidene)-3-((4-ethylpiperazin-1-yl)sulfonyl)benzohydrazide] displayed an IC50 of 0.426 µM. The compound `CC1CC(=NNC(=O)c2cccc(S(=O)(=O)N3CCN(C)CC3)c2)c2c(O)ccc(Cl)c21` (stereo in doubt) [SP-10054_Z, (E)-N′-(4-chloro-7-hydroxy-3-methyl-2,3-dihydro-1H-inden-1-ylidene)-3-((4-methylpiperazin-1-yl)sulfonyl)benzohydrazide] returned an IC50 of 0.029 µM.

In turn, `CC1CC(=NNC(=O)c2cccc(S(=O)(=O)N3CCOCC3)c2)c2c(O)ccc(Cl)c21` (stereo in doubt) [SP-10055_Z, (E)-N′-(4-chloro-7-hydroxy-3-methyl-2,3-dihydro-1H-inden-1-ylidene)-3-(morpholinosulfonyl)benzohydrazide] yielded a concentration for half-maximal inhibition (IC50) of 0.418 µM. As for `CN1CCN(S(=O)(=O)c2cccc(C(=O)N/N=C3\CCc4cc(O)cc(Cl)c43)c2)CC1` [SP-10043-E, (E)-N′-(7-chloro-5-hydroxy-2,3-dihydro-1H-inden-1-ylidene)-3-((4-methylpiperazin-1-yl)sulfonyl)benzohydrazide], the IC50 was above 10 µM. Same read-out and setting: with `CN1CCN(S(=O)(=O)c2cccc(C(=O)N/N=C3/CCc4cc(O)cc(Cl)c43)c2)CC1` [SP-10043_Z] the figure was above 10 µM; with `CN1CCN(S(=O)(=O)c2cccc(C(=O)N/N=C3/CCc4c(F)ccc(O)c43)c2)CC1` [SP-10044_Z], 0.403 µM; with `Cc1cc(Cl)c2c(c1O)/C(=N/NC(=O)c1cccc(S(=O)(=O)N3CCC(C)CC3)c1)CC2` [SP-10046_E, (E)-N′-(4-chloro-7-hydroxy-6-methyl-2,3-dihydro-1H-inden-1-ylidene)-3-((4-methylpiperidin-1-yl)sulfonyl)benzohydrazide], above 10 µM. `CC1C/C(=N\NC(=O)c2cccc(S(=O)(=O)N3CCOCC3)c2)c2c(O)ccc(Cl)c21` (stereo not drawn) [SP-10055_E, (E)-N′-(4-chloro-7-hydroxy-3-methyl-2,3-dihydro-1H-inden-1-ylidene)-3-(morpholinosulfonyl)benzohydrazide] returned an IC50 of 0.078 µM. As for `Cc1ccc(Cl)c2c1/C(=N/NC(=O)c1cccc(S(=O)(=O)N3CCN(C)CC3)c1)CC2` [SP-10061_E, (E)-N′-(4-chloro-7-methyl-2,3-dihydro-1H-inden-1-ylidene)-3-((4-methylpiperazin-1-yl)sulfonyl)benzohydrazide], the IC50 is 30.4 µM.

A further assay concerns the target T2, LSD2 (Homo sapiens, UniProt Q8NB78).
T2 sequence (Q8NB78 1-822): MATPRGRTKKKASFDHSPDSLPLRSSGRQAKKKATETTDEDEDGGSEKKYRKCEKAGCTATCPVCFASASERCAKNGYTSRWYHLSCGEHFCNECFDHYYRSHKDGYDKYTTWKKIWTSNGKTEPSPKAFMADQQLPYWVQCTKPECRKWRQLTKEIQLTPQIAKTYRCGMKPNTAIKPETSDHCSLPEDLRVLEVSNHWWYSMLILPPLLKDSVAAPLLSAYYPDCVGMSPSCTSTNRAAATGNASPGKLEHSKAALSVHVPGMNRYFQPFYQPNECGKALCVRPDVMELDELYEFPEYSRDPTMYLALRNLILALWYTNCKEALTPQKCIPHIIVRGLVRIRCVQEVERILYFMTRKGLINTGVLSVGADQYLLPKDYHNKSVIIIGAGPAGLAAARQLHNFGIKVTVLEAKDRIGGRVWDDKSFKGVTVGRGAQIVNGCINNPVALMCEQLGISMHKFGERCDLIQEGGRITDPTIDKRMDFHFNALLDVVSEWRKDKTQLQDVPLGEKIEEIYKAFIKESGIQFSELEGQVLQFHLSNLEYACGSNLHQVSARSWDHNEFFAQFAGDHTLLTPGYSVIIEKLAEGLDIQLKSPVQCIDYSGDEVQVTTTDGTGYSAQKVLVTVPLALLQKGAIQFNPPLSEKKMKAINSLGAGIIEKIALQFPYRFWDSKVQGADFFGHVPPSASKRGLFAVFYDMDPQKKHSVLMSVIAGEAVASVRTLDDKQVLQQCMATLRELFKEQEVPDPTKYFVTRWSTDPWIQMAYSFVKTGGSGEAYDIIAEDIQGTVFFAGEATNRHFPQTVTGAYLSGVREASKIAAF
Nature of the assay: LSD2 enzymatic activity (FIG. 4).
Details: not given
In kind it is biochemical. The text has this: Inhibition of LSD activity can be determined by a variety of both in vitro and in vivo methods known to one skilled in the art. For example, enzymatic activity can be determined in in vitro enzyme assay systems. In various aspects, the enzymatic activity of either LSD1 or LSD2 can be determined in a spectrophometric assay. Briefly, the assay is based on the multistep enzymatic reaction in which LSD1 or LSD2 first produces H2O2 during the demethylation of lysine 4 on a peptide corresponding to the first 21 amino acids of the N-terminal tail of histone H3. In the presence of horseradish peroxidase, the H2O2 produced reacts with ADHP to produce the highly fluorescent compound resorufin that can be analyzed with an excitation wavelength of 530-540 nm and an emission wavelength of 585-595 nm. The assay requires a source of LSD or LSD2 enzyme, either purified from natural sources (e.g. a tissue or cultured cells), isolated as a recombinantly expressed protein, or as a unpurified protein in whole cell extracts.
Consider `CN1CCN(S(=O)(=O)c2cccc(C(=O)N/N=C3\CCc4c(Cl)ccc(O)c43)c2)CC1` [SP-10041_E, (E)-N′-(4-chloro-7-hydroxy-2,3-dihydro-1H-inden-1-ylidene)-3-((4-methylpiperazin-1-yl)sulfonyl)benzohydrazide], for which the “inhibition of LSD2 activity (in words, FIG. 4)” value is “significantly inhibit”. Still for that read-out and setting: with `CN1CCN(S(=O)(=O)c2cccc(C(=O)N/N=C3/CCc4c(Cl)ccc(O)c43)c2)CC1` [SP-10041_Z] the entry was “significantly inhibit”.

The subject of a further assay is Ewing's sarcoma cells. Nature of the assay: Cell viability with drug screening (CellTiter Glo, 72 hour). In kind it is cell-based. The settings on record: SK-N-MC, SKESI, A673 cells. The method, then:
A hemocytometer count is performed to determine cell concentration. In a 96-well tissue culture plate, 2000 cells per well are plated for each drug concentration. Generally, 10 wells are done in duplicate. Then, the plates are placed in incubator overnight to allow cells to adhere to the plate (If suspension cells, proceed to the next step). Then, the desired drug concentrations are added to each well (ex. Serial dilutions 10 uM, 3 uM, 1 uM, […] . . . etc.). Generally, each drug concentration is made at 10× in media and then 10 uL of drug is diluted in 90 uL of cells to get the final desired concentration. Then, the cells are incubated at 37° C. for 72 hours; after 72 hours, 100 uL of Promega Cell Titer Glo is added, and allowed incubation at room temperature for 10 minutes. Finally, the plates are read using the Envision software. Data analysis is performed using Graph Pad Prism 6.
FIGS. 5-7 depict graphs showing 72 hour time course cell viability of Ewing's sarcoma using CellTiter Glo (Promega). The tested compound was 10054Z and the control compound was 2606 which has the following structure: […]
(ATP-based viability assays read luminescence as a measure of living cells.)
As to `CC1CC(=NNC(=O)c2cccc(S(=O)(=O)N3CCN(C)CC3)c2)c2c(O)ccc(Cl)c21` (stereo in doubt) [SP-10054_Z, (E)-N′-(4-chloro-7-hydroxy-3-methyl-2,3-dihydro-1H-inden-1-ylidene)-3-((4-methylpiperazin-1-yl)sulfonyl)benzohydrazide], the “viability of Ewing's sarcoma cells (in words, FIGS. 5-7)” value is listed as “significantly decrease the viability”.
